Entries after “also recorded” stand apart in the source; their conditions may differ.
Legend:
[1] = system: seizures associated with Rett syndrome; test: Open label, phase I trial of CBDV in patients diagnosed with Rett syndrome (caregiver seizure diary); assay type: in vivo, human; set-up: Mean seizure frequency reduction: concentration or dose not given beside the values; settings: for Mean seizure frequency reduction: versus baseline
From the text: Example 1 below describes the use of a botanically derived purified CBDV in an open label, phase I trial to investigate the clinical efficacy and safety of purified pharmaceutical cannabidivarin formulation (CBDV) in the treatment of patients diagnosed with Rett syndrome.
Subjects were required to be on one or more AEDs at stable doses for a minimum of 4 weeks prior to baseline. Subjects had to have been diagnosed with intractable epilepsy: failed adequate trial of two, or more, standard anticonvulsants, and four or more quantifiable seizures less than 8 weeks prior to screening, and two or more quantifiable seizures in prospective baseline phase.
Patients were administered botanically derived purified CBDV in a 50 mg/mL sesame oil-based solution which was titrated to an initial dose of 2.5 milligrams per kilogram per day (mg/kg/day). Doses were then increased to a goal of 10 mg/kg/day.
There were five patients in this study, and each received CBDV for various durations of time. Modifications were made to concomitant AEDs as per clinical indication.
Seizure frequency, intensity, and duration were recorded by caregivers in a diary during a baseline period of at least 28 days. Changes in seizure frequency relative to baseline were calculated after at least 2 weeks and at defined timepoints of treatment.
Patients may be defined as responders if they had more than 50% reduction in seizure frequency compared to baseline. The percent change of seizure frequency for the end of the treatment period was calculated as follows: […]

[2] = system: mouse model of Rett syndrome; settings: cited from earlier work
[3] = system: pilocarpine-induced seizures; settings: CBDV alone; Hill et al. 2012; cited from earlier work
[4] = system: methyl-6, 7-dimethoxy-4-ethyl-beta-carboline-3-carboxylate (DMCM) model; settings: postnatal day 10 animals; cited from earlier work
[5] = system: maximal electroshock model; settings: postnatal day 10 animals; cited from earlier work
[6] = system: MeCP2 KO mouse model of Rett Syndrome; settings: WO 2017/178807; cited from earlier work
[7] = system: patients with Dravet and Lennox-Gastaut syndrome; settings: purified pharmaceutical formulation of CBD; three trials; cited from earlier work
[8] = Patient 1, total over 14 months of CBDV, baseline 0
[9] = Patient 2, total over 11 months of CBDV, baseline 0
[10] = Patient 3, total over 12 months of CBDV, baseline 0
[11] = Patient 4, total over 12.5 months of CBDV, baseline 0
[12] = Patient 5, total over 11 months of CBDV, baseline 0

C=C(C)[C@@H]1CCC(C)=C[C@H]1c1c(O)cc(CCC)cc1O [CBDV, cannabidivarin]
Mean seizure frequency reduction ([1]; Patient 1, 14 months of CBDV): 52.5% | Total seizure frequency ([1]; Patient 1, 14 months of CBDV, baseline 32.0/month): 15.2/month | Focal seizures with impairment, Non-motor: seizure count [1, 8]: 2 /14 months | Generalised seizures, Motor other: seizure count [1, 8]: 8 /14 months | Generalised seizures, Motor tonic-clonic: seizure count [1, 8]: 0 /14 months | Non-motor: seizure count [1, 8]: 0 /14 months | Other: seizure count [1, 8]: 1 /14 months | Unknown onset, Motor other: seizure count [1, 8]: 3 /14 months | Unknown onset, Motor tonic-clonic: seizure count [1, 8]: 7 /14 months | Focal seizures with impairment, Motor: seizure count ([1]; Patient 1, total over 14 months of CBDV, baseline 32): 192 /14 months | Mean seizure frequency reduction ([1]; Patient 2, 11 months of CBDV): 79.4% | Total seizure frequency ([1]; Patient 2, 11 months of CBDV, baseline 35.0/month): 7.2/month | Focal seizures with impairment, Motor: seizure count [1, 9]: 0 /11 months | Generalised seizures, Motor other: seizure count [1, 9]: 0 /11 months | Generalised seizures, Motor tonic-clonic: seizure count [1, 9]: 0 /11 months | Non-motor: seizure count [1, 9]: 0 /11 months | Unknown onset, Motor other: seizure count [1, 9]: 0 /11 months | Unknown onset, Motor tonic-clonic: seizure count [1, 9]: 0 /11 months | Other: seizure count ([1]; Patient 2, total over 11 months of CBDV, baseline 3): 18 /11 months | Focal seizures with impairment, Non-motor: seizure count ([1]; Patient 2, total over 11 months of CBDV, baseline 32): 61 /11 months | Mean seizure frequency reduction ([1]; Patient 3, 12 months of CBDV): 90.0% | Total seizure frequency ([1]; Patient 3, 12 months of CBDV, baseline 6.0/month): 0.6/month | Focal seizures with impairment, Non-motor: seizure count [1, 10]: 0 /12 months | Generalised seizures, Motor other: seizure count [1, 10]: 0 /12 months | Non-motor: seizure count [1, 10]: 0 /12 months | Other: seizure count [1, 10]: 0 /12 months | Unknown onset, Motor other: seizure count [1, 10]: 0 /12 months | Unknown onset, Motor tonic-clonic: seizure count [1, 10]: 0 /12 months | Focal seizures with impairment, Motor: seizure count ([1]; Patient 3, total over 12 months of CBDV, baseline 1): 3 /12 months | Generalised seizures, Motor tonic-clonic: seizure count ([1]; Patient 3, total over 12 months of CBDV, baseline 5): 4 /12 months | Mean seizure frequency reduction ([1]; Patient 4, 12.5 months of CBDV): 5.7% | Total seizure frequency ([1]; Patient 4, 12.5 months of CBDV, baseline 7.0/month): 6.6/month | Focal seizures with impairment, Non-motor: seizure count [1, 11]: 0 /12.5 months | Generalised seizures, Motor tonic-clonic: seizure count [1, 11]: 0 /12.5 months | Non-motor: seizure count [1, 11]: 0 /12.5 months | Other: seizure count [1, 11]: 6 /12.5 months | Unknown onset, Motor other: seizure count [1, 11]: 0 /12.5 months | Unknown onset, Motor tonic-clonic: seizure count [1, 11]: 0 /12.5 months | Focal seizures with impairment, Motor: seizure count ([1]; Patient 4, total over 12.5 months of CBDV, baseline 3): 73 /12.5 months | Generalised seizures, Motor other: seizure count ([1]; Patient 4, total over 12.5 months of CBDV, baseline 4): 4 /12.5 months | Mean seizure frequency reduction ([1]; Patient 5, 11 months of CBDV): 98.1% | Total seizure frequency ([1]; Patient 5, 11 months of CBDV, baseline 371.0/month): 7.2/month | Focal seizures with impairment, Motor: seizure count [1, 12]: 0 /11 months | Focal seizures with impairment, Non-motor: seizure count [1, 12]: 0 /11 months | Non-motor: seizure count [1, 12]: 6 /11 months | Other: seizure count [1, 12]: 0 /11 months | Unknown onset, Motor tonic-clonic: seizure count [1, 12]: 0 /11 months | Generalised seizures, Motor other: seizure count ([1]; Patient 5, total over 11 months of CBDV, baseline 18): 18 /11 months | Generalised seizures, Motor tonic-clonic: seizure count ([1]; Patient 5, total over 11 months of CBDV, baseline 25): 38 /11 months | Unknown onset, Motor other: seizure count ([1]; Patient 5, total over 11 months of CBDV, baseline 328): 17 /11 months | Decrease of seizure frequency rates, maximum ([1]; across listed seizure types): up to 98% | Reduction in seizures over the period of treatment, range over patients ([1]; all five patients, 11-14 months of CBDV): 5.7-98.1% | Patients with more than 50% reduction in seizure frequency compared to baseline (responders) ([1]; five patients): four of the five patients | Patients with more than 75% reduction in seizure frequency compared to baseline ([1]; five patients): three | Effect on number of seizures associated with Rett syndrome ([1]; five patients, open label): significantly reduce the number of seizures | Effect on frequency of seizure types ([1]; focal motor/non-motor with impairment, generalised motor/non-motor, unknown onset motor, non-motor and other types): effective in reducing the frequency of all seizure types; also recorded: significant reduction in specific seizure types | Patients with focal seizures with impairment who experienced a reduction in their seizures ([1]; four patients (patient 1-4) suffered from focal seizures with impairment): three (patients 1-3) of these patients experienced a reduction | Patients with generalised seizures who experienced a reduction in these seizures ([1]; three patients (patients 3-5) suffered from generalised seizures): all three experienced a reduction | Behavioural alterations ([2]; reference 2): rescue the behavioural alterations | Memory deficits ([2]; reference 3): rescued memory deficits | Neurological and motor defects ([2]; reference 3): delayed the appearance of neurological and motor defects | Effect on pilocarpine-induced seizures [3]: did not have any effect | Seizure suppression [4]: did not suppress seizures | Seizure suppression [5]: did not suppress seizures | Bodyweight and survival [6]: reduce the decrease in bodyweight and survival | General condition and symptoms of mobility and breathing [6]: improved general condition and symptoms of mobility and breathing

C=C(C)[C@@H]1CCC(C)=C[C@H]1c1c(O)cc(CCCCC)cc1O [CBD, Cannabidiol]
Efficacy in randomized control trials [7]: showed efficacy
